Laboratory results taken from article PMC11435058, “Synthesis of New Thiazole-Privileged Chalcones as Tubulin Polymerization Inhibitors with Potential Anticancer Activities” (Pharmaceuticals, 2024).

Key:
SNB-19 = test: cells; details: Homo sapiens
HL-60(TB) = test: NCI-60 anticancer screen (SRB; single dose and five doses); details: Homo sapiens
MOLT-4 = test: as above; details: Homo sapiens
HOP-62 = test: as above; details: Homo sapiens
NCI-H23 = test: as above; details: Homo sapiens
HCC-2998 = test: as above
SW-620 = test: as above; details: Homo sapiens
SF-295 = test: as above; details: Homo sapiens
SF-539 = test: as above; details: Homo sapiens
MALME-3M = test: as above; details: Homo sapiens
M14 = test: as above; details: Homo sapiens
MDA-MB-435 = test: as above; details: Homo sapiens
SK-MEL-28 = test: as above; details: Homo sapiens
SK-MEL-5 = test: as above; details: Homo sapiens
UACC-257 = test: as above; details: Homo sapiens
OVCAR-4 = test: as above; details: Homo sapiens
SK-OV-3 = test: as above; details: Homo sapiens
786-0 = test: as above; details: Homo sapiens
A498 = test: as above; details: Homo sapiens
RXF 393 = test: as above; details: Homo sapiens
SN12C = test: as above; details: Homo sapiens
TK-10 = test: as above; details: Homo sapiens
PC-3 = test: as above; details: Homo sapiens
DU-145 = test: as above; details: Homo sapiens
MDA-MB-231/ATCC = test: as above; details: Homo sapiens
BT-549 = test: as above; details: Homo sapiens
T-47D = test: as above; details: Homo sapiens, T47D
CCRF-CEM = test: NCI-60 anticancer screen (SRB; single dose 10 μM and five doses); details: Homo sapiens
[1] = 48 h, read-out: Growth Percentage

Compound: Cc1[nH]c(=S)sc1C(=O)/C=C/c1ccc([N+](=O)[O-])cc1 [2i, (E)-1-(4-Methyl-2-Thioxo-2,3-Dihydrothiazol-5-yl)-3-(4-Nitrophenyl)Prop-2-En-1-One]
- GI50 (SNB-19; SNB-19): 5.42 µM
- activity at 10 µM (SNB-19; SNB-19, 48 h, read-out: Growth Percentage): 41.2%
- CC50 (SNB-19; SNB-19, read-out: LC50): 43.2 µM
- IC (TGI) (SNB-19; SNB-19, read-out: TGI): 18.3 µM
- GI50 (HL-60(TB); HL-60): 3.05 µM
- activity at 10 µM (HL-60(TB); HL-60, 48 h, read-out: Growth Percentage): -5.39%
- CC50 (HL-60(TB); HL-60, read-out: LC50): > 100 µM
- IC (TGI) (HL-60(TB); HL-60, read-out: TGI): 16.9 µM
- GI50 (MOLT-4; MOLT-4): 3.79 µM
- activity at 10 µM (MOLT-4; MOLT-4, 48 h, read-out: Growth Percentage): 14.2%
- CC50 (MOLT-4; MOLT-4, read-out: LC50): > 100 µM
- IC (TGI) (MOLT-4; MOLT-4, read-out: TGI): > 100 µM
- GI50 (HOP-62; HOP-62): 6.43 µM
- activity at 10 µM (HOP-62; HOP-62, 48 h, read-out: Growth Percentage): 21.6%
- CC50 (HOP-62; HOP-62, read-out: LC50): 67.7 µM
- IC (TGI) (HOP-62; HOP-62, read-out: TGI): 23.2 µM
- GI50 (NCI-H23; NCI-H23): 12.2 µM
- activity at 10 µM (NCI-H23; NCI-H23, 48 h, read-out: Growth Percentage): 49.2%
- CC50 (NCI-H23; NCI-H23, read-out: LC50): 52.6 µM
- IC (TGI) (NCI-H23; NCI-H23, read-out: TGI): 25.3 µM
- GI50 (HCC-2998; Homo sapiens, HCC 2998): 9.37 µM
- activity at 10 µM (HCC-2998; Homo sapiens, HCC 2998, 48 h, read-out: Growth Percentage): -11.9%
- CC50 (HCC-2998; Homo sapiens, HCC 2998, read-out: LC50): 47 µM
- TGI (HCC-2998; five-dose, Colon Cancer HCC-2998): 21.5 µM
- GI50 (SW-620; SW-620): 3.59 µM
- activity at 10 µM (SW-620; SW-620, 48 h, read-out: Growth Percentage): -44.8%
- CC50 (SW-620; SW-620, read-out: LC50): 44.2 µM
- IC (TGI) (SW-620; SW-620, read-out: TGI): 13.9 µM
- GI50 (SF-295; SF-295): 16.1 µM
- activity at 10 µM (SF-295; SF-295, 48 h, read-out: Growth Percentage): 86.1%
- CC50 (SF-295; SF-295, read-out: LC50): 56.5 µM
- IC (TGI) (SF-295; SF-295, read-out: TGI): 30.2 µM
- GI50 (SF-539; SF-539): 2310 nM
- activity at 10 µM (SF-539; SF-539, 48 h, read-out: Growth Percentage): -25.2%
- IC (TGI) (SF-539; SF-539, read-out: TGI): 7.02 µM
- GI50 (MALME-3M): 13.7 µM
- activity at 10 µM (MALME-3M; [1]): 75.2%
- CC50 (MALME-3M; read-out: LC50): 70.8 µM
- IC (TGI) (MALME-3M; read-out: TGI): 31.1 µM
- GI50 (M14; M14): 12.2 µM
- activity at 10 µM (M14; M14, 48 h, read-out: Growth Percentage): 69.5%
- IC (TGI) (M14; M14, read-out: TGI): 28.4 µM
- GI50 (MDA-MB-435; MDA-MB-435): 7.39 µM
- activity at 10 µM (MDA-MB-435; MDA-MB-435, 48 h, read-out: Growth Percentage): 3.76%
- CC50 (MDA-MB-435; MDA-MB-435, read-out: LC50): 50.9 µM
- IC (TGI) (MDA-MB-435; MDA-MB-435, read-out: TGI): 21.1 µM
- GI50 (SK-MEL-28; SK-MEL-28): 13.7 µM
- activity at 10 µM (SK-MEL-28; SK-MEL-28, 48 h, read-out: Growth Percentage): 23.9%
- CC50 (SK-MEL-28; SK-MEL-28, read-out: LC50): 52.5 µM
- IC (TGI) (SK-MEL-28; SK-MEL-28, read-out: TGI): 26.8 µM
- GI50 (SK-MEL-5; SK-MEL-5): 12 µM
- activity at 10 µM (SK-MEL-5; SK-MEL-5, 48 h, read-out: Growth Percentage): 53.8%
- CC50 (SK-MEL-5; SK-MEL-5, read-out: LC50): 49.7 µM
- IC (TGI) (SK-MEL-5; SK-MEL-5, read-out: TGI): 24.4 µM
- GI50 (UACC-257; UACC-257): 15.1 µM
- activity at 10 µM (UACC-257; UACC-257, 48 h, read-out: Growth Percentage): 63.3%
- CC50 (UACC-257; UACC-257, read-out: LC50): 61.4 µM
- IC (TGI) (UACC-257; UACC-257, read-out: TGI): 30.4 µM
- GI50 (OVCAR-4; OVCAR-4): 14.9 µM
- activity at 10 µM (OVCAR-4; OVCAR-4, 48 h, read-out: Growth Percentage): 49.2%
- CC50 (OVCAR-4; OVCAR-4, read-out: LC50): 53.8 µM
- IC (TGI) (OVCAR-4; OVCAR-4, read-out: TGI): 28.3 µM
- GI50 (SK-OV-3; SK-OV-3): 18.6 µM
- activity at 10 µM (SK-OV-3; SK-OV-3, 48 h, read-out: Growth Percentage): 108%
- CC50 (SK-OV-3; SK-OV-3, read-out: LC50): 76.9 µM
- IC (TGI) (SK-OV-3; SK-OV-3, read-out: TGI): 37.8 µM
- GI50 (786-0; 786-0): 3.99 µM
- activity at 10 µM (786-0; 786-0, 48 h, read-out: Growth Percentage): 25.6%
- CC50 (786-0; 786-0, read-out: LC50): 54 µM
- IC (TGI) (786-0; 786-0, read-out: TGI): 17.6 µM
- GI50 (A498; A498): 15.5 µM
- activity at 10 µM (A498; A498, 48 h, read-out: Growth Percentage, A498, dose of 10 μM): 105%
- CC50 (A498; A498, read-out: LC50): 55.3 µM
- IC (TGI) (A498; A498, read-out: TGI): 29.3 µM
- GI50 (RXF 393; RXF 393): 4.88 µM
- activity at 10 µM (RXF 393; RXF 393, 48 h, read-out: Growth Percentage): -4.35%
- CC50 (RXF 393; RXF 393, read-out: LC50): 44.8 µM
- IC (TGI) (RXF 393; RXF 393, read-out: TGI): 18.6 µM
- GI50 (SN12C): 6.06 µM
- activity at 10 µM (SN12C; [1]): 18.6%
- CC50 (SN12C; read-out: LC50): 44.7 µM
- IC (TGI) (SN12C; read-out: TGI): 19.3 µM
- GI50 (TK-10; TK-10): 12.4 µM
- activity at 10 µM (TK-10; TK-10, 48 h, read-out: Growth Percentage): 12.9%
- CC50 (TK-10; TK-10, read-out: LC50): 51.3 µM
- IC (TGI) (TK-10; TK-10, read-out: TGI): 25.3 µM
- GI50 (PC-3; PC-3): 10.3 µM
- activity at 10 µM (PC-3; PC-3, 48 h, read-out: Growth Percentage): 51.3%
- CC50 (PC-3; PC-3, read-out: LC50): > 100 µM
- IC (TGI) (PC-3; PC-3, read-out: TGI): 37.3 µM
- GI50 (DU-145; DU-145): 3.41 µM
- activity at 10 µM (DU-145; DU-145, 48 h, read-out: Growth Percentage): 21.4%
- CC50 (DU-145; DU-145, read-out: LC50): 34.5 µM
- IC (TGI) (DU-145; DU-145, read-out: TGI): 11 µM
- GI50 (MDA-MB-231/ATCC; MDA-MB-231): 12 µM
- activity at 10 µM (MDA-MB-231/ATCC; MDA-MB-231, 48 h, read-out: Growth Percentage): 10.8%
- CC50 (MDA-MB-231/ATCC; MDA-MB-231, read-out: LC50): 51.5 µM
- IC (TGI) (MDA-MB-231/ATCC; MDA-MB-231, read-out: TGI): 24.8 µM
- GI50 (BT-549; BT-549): 5.04 µM
- activity at 10 µM (BT-549; BT-549, 48 h, read-out: Growth Percentage): 20.1%
- IC (TGI) (BT-549; BT-549, read-out: TGI): 19.3 µM
- GI50 (T-47D): 4.96 µM
- activity at 10 µM (T-47D; [1]): 44.3%
- CC50 (T-47D; read-out: LC50): > 100 µM
- IC (TGI) (T-47D; read-out: TGI): 25.7 µM
- GI50 (CCRF-CEM): 4.56 µM
- activity at 10 µM (CCRF-CEM; [1]): -7.25%
- IC (TGI) (CCRF-CEM; read-out: TGI): > 100 µM
